Reference: patent publication US4751295A, “Cephalosporin derivatives” (Bristol-Myers Company, priority 1986, dated 1988)
Values after ≈ are worked out from the molar mass of the structure shown. Counter-ions that a name gives are not always drawn. Like-named read-outs stand apart in the source and are kept apart here.

Legend:
[1] = blood levels upon intramuscular administration to mice; format: in vivo; settings: mouse, im, 20 mg/kg
Protocol: Table 2, below, gives the Protective Dose50 (PD50) in mice for a number of the compounds of Formula I against selected microorganisms. Table 3 gives blood levels of various compounds of Formula I upon intramuscular administration of the test compounds to mice at a dosage of 20 mg/kg.

[2] = tested on: Penicillinsensitive S. aureus (5 strains); test: MIC, two-fold serial agar dilution, group (G+)-Ia; format: cell-based; settings: for MIC: Staphylococcus aureus, read-out: Geometric Mean of MIC, (G+)-Ia
Protocol: (§1) In the primary evaluation of the compounds of this invention, the Minimum Inhibitory Concentrations (MIC's) of the compounds were determined by the two-fold serial agar dilution method in Mueller-Hinton agar against 32 strains of test organisms in six groups.
(G+)Ia: Penicillinsensitive S. aureus (5 strains)

[3] = tested on: M. morganii (1 strain), Ent. cloacae (2 strains) and Ser. marcescens (2 strains); test: MIC, two-fold serial agar dilution, group (G-)-II; format: cell-based; settings: Mueller-Hinton agar, 5 strains; for MIC: read-out: Geometric Mean of MIC, (G-)-II
Protocol: as §1
(G-)II: M. morganii (1 strain), Ent. cloacae (2 strains) and Ser.

[4] = tested on: Penicillinresistant S. aureus (5 strains); test: MIC, two-fold serial agar dilution, group (G+)-Ib; format: cell-based; settings: Mueller-Hinton agar, 5 strains; for MIC: Staphylococcus aureus, read-out: Geometric Mean of MIC, (G+)-Ib
Protocol: as §1
(G+)Ib: Penicillinresistant S. aureus (5 strains)

[5] = tested on: Ps. aeruginosa (7 strains); test: MIC, two-fold serial agar dilution, group (G-)-III; format: cell-based; settings: Mueller-Hinton agar; for MIC: Pseudomonas aeruginosa, read-out: Geometric Mean of MIC, (G-)-III
Protocol: as §1
(G-)III: Ps. aeruginosa (7 strains)

[6] = tested on: Cephalothinsensitive E. coli (2 strains), Kl. pneumoniae (1 strain) and Pr. mirabilis (2 strains); test: MIC, two-fold serial agar dilution, group (G-)-Ia; format: cell-based; settings: 5 strains
Protocol: as §1
(G+)Ia: Cephalothinsensitive E. coli (2 strains), Kl. pneumoniae (1
strain) and Pr. mirabilis (2 strains)

[7] = tested on: Cephalothinresistant E. coli (3 strains) and Kl. pneumoniae (2 strains); test: MIC, two-fold serial agar dilution, group (G-)-Ib; format: cell-based; settings: 5 strains; for MIC: Escherichia coli, read-out: Geometric Mean of MIC, (G-)-Ib, Mueller-Hinton agar; for Geometric Mean of MIC, (G-)-Ib: Mueller-Hinton agar
Protocol: as §1
(G-)Ib: Cephalothinresistant E. coli (3 strains) and Kl. pneumoniae (2

[8] = Mueller-Hinton agar, read-out: Geometric Mean of MIC, (G-)-Ia

Row | SMILES | MIC [3] | MIC [4] | MIC [5] | MIC [6, 8] | MIC [7] | MIC ([2]; Mueller-Hinton agar, 5 strains) | further results
1 | CON=C(C(=O)NC1C(=O)N2C(C(=O)[O-])=C(C=CC[N+](C)(C)C)CS[C@H]12)c1nsc(N)n1 (stereo partly drawn) [Compound I-1D, 7-[2-(5-Amino-1,2,4-thiadiazol-3-yl)-2-methoxyiminoacetamido]-3-(3-trimethylammonio-1-propen-1-yl)-3-cephem-4-carboxylate] | – | – | – | – | – | – | AUC [1]: 11000 ng·h/mL; Cmax [1]: 20000 ng/mL; half-life [1]: 19 min
2 | CON=C(C(=O)NC1C(=O)N2C(C(=O)[O-])=C(/C=C/C[n+]3cccc(N)c3)CSC12)c1nsc(N)n1 (stereo not drawn) [Compound I-1E, 7-[2-(5-Amino-1,2,4-thiadiazol-3-yl)-2-methoxyiminoacetamido]-3-[3-(3-aminopyridinio)-1-propen-1-yl]-3-cephem-4-carboxylate] | 0.1 µg/mL (≈ 0.194 µM) | 0.4 µg/mL (≈ 0.774 µM) | 1.4 µg/mL (≈ 2.71 µM) | 0.0094 µg/mL (≈ 0.0182 µM) | 0.029 µg/mL (≈ 0.0561 µM) | – | MIC [2]: 0.2 µg/mL (≈ 0.387 µM)
3 | CON=C(C(=O)NC1C(=O)N2C(C(=O)[O-])=C(/C=C/C[n+]3cccc(NC=O)c3)CSC12)c1nsc(N)n1 (stereo not drawn) [Compound I-1F, 7-[2-(5-Amino-1,2,4-thiadiazol-3-yl)-2-methoxyiminoacetamido]-3-[3-(3-formylaminopyridinio)-1-propen-1-yl]-3-cephem-4-carboxylate] | 0.099 µg/mL (≈ 0.182 µM) | 0.4 µg/mL (≈ 0.735 µM) | 1.2 µg/mL (≈ 2.2 µM) | 0.0094 µg/mL (≈ 0.0173 µM) | 0.033 µg/mL (≈ 0.0606 µM) | 0.15 µg/mL (≈ 0.275 µM) | –
4 | CON=C(C(=O)NC1C(=O)N2C(C(=O)[O-])=C(/C=C/C[n+]3cccc(CN)c3)CSC12)c1nsc(N)n1 (stereo not drawn) [Compound I-1I, 7-[2-(5-Amino-1,2,4-thiadiazol-3-yl)-2-methoxyiminoacetamido]-3-[3-(3-aminomethylpyridinio)-1-propen-1-yl]-3-cephem-4-carboxylate] | 0.69 µg/mL (≈ 1.3 µM) | 1.6 µg/mL (≈ 3.02 µM) | 3.1 µg/mL (≈ 5.84 µM) | 0.1 µg/mL (≈ 0.188 µM) | 0.2 µg/mL (≈ 0.377 µM) | 0.8 µg/mL (≈ 1.51 µM) | –
5 | CON=C(C(=O)NC1C(=O)N2C(C(=O)[O-])=C(/C=C/C[n+]3ccc(CO)cc3)CSC12)c1nsc(N)n1 (stereo not drawn) [Compound I-1L, 7-[2-(5-Amino-1,2,4-thiadiazol-3-yl)-2-methoxyiminoacetamido]-3-[3-(4-hydroxymethylpyridinio)-1-propen-1-yl]-3-cephem-4-carboxylate] | 0.15 µg/mL (≈ 0.282 µM) | 0.61 µg/mL (≈ 1.15 µM) | 2.6 µg/mL (≈ 4.89 µM) | 0.029 µg/mL (≈ 0.0546 µM) | 0.088 µg/mL (≈ 0.166 µM) | 0.26 µg/mL (≈ 0.489 µM) | –
6 | CON=C(C(=O)NC1C(=O)N2C(C(=O)[O-])=C(/C=C/C[n+]3cccc(CC(=O)O)c3)CSC12)c1nsc(N)n1 (stereo not drawn) [Compound I-1P, 7-[2-(5-Amino-1,2,4-thiadiazol-3-yl)-2-methoxyiminoacetamido]-3-[3-(3-carboxymethylpyridinio)-1-propenyl]-3-cephem-4-carboxylate] | 0.34 µg/mL (≈ 0.608 µM) | 1.6 µg/mL (≈ 2.86 µM) | 14 µg/mL (≈ 25 µM) | 0.013 µg/mL (≈ 0.0232 µM) | 0.087 µg/mL (≈ 0.155 µM) | 0.8 µg/mL (≈ 1.43 µM) | –
7 | CON=C(C(=O)NC1C(=O)N2C(C(=O)[O-])=C(/C=C/C[n+]3ccc(SCC(=O)O)cc3)CSC12)c1nsc(N)n1 (stereo not drawn) [Compound I-1Q, 7-[2-(5-Amino-1,2,4-thiadiazol-3-yl)-2-methoxyiminoacetamido]-3-[3-(4-carboxymethylthiopyridinio)-1-propenyl]-3-cephem-4-carboxylate] | 0.23 µg/mL (≈ 0.389 µM) | 0.92 µg/mL (≈ 1.55 µM) | 14 µg/mL (≈ 23.7 µM) | 0.0095 µg/mL (≈ 0.0161 µM) | 0.044 µg/mL (≈ 0.0744 µM) | 0.7 µg/mL (≈ 1.18 µM) | –
8 | CCON=C(C(=O)NC1C(=O)N2C(C(=O)[O-])=C(/C=C/C[n+]3ccc(C(N)=O)cc3)CSC12)c1nsc(N)n1 (stereo not drawn) [Compound I-2H, 7-[2-(5-Amino-1,2,4-thiadiazol-3-yl)-2-ethoxyiminoacetamido]-3-[3-(4-carbamoylpyridinio)-1-propen-1-yl]-3-cephem-4-carboxylate] | 0.15 µg/mL (≈ 0.269 µM) | 0.4 µg/mL (≈ 0.716 µM) | 1.4 µg/mL (≈ 2.51 µM) | 0.014 µg/mL (≈ 0.0251 µM) | 0.057 µg/mL (≈ 0.102 µM) | – | MIC [2]: 0.2 µg/mL (≈ 0.358 µM)
9 | C=CCON=C(C(=O)NC1C(=O)N2C(C(=O)[O-])=C(/C=C/C[n+]3ccc(C(N)=O)cc3)CSC12)c1nsc(N)n1 (stereo not drawn) [Compound I-3H, 7-[2-(Amino-1,2,4-thiadiazol-3-yl)-2-(propen-3-yloxyimino)acetamido]-3-[3-(4-carbamoylpyridinio)-1-propenyl]-3-cephem-4-carboxylate] | 0.52 µg/mL (≈ 0.911 µM) | 0.4 µg/mL (≈ 0.701 µM) | 1.9 µg/mL (≈ 3.33 µM) | 0.057 µg/mL (≈ 0.0999 µM) | 0.1 µg/mL (≈ 0.175 µM) | 0.23 µg/mL (≈ 0.403 µM) | AUC [1]: 25000 ng·h/mL; Cmax [1]: 19000 ng/mL; half-life [1]: 47 min
10 | CON=C(C(=O)NC1C(=O)N2C(C(=O)[O-])=C(C=CC[N+]3(C)CCCC3)CSC12)c1nsc(N)n1 (stereo not drawn) [I-1A E/Z = 1/1, 7-[2-(5-Amino-1,2,4-thiadiazol-3-yl)-2-methoxyiminoacetamido]-3-[3-(1-methylpyrrolidinio)-1-propen-1-yl]-3-cephem-4-carboxylate] | 0.23 µg/mL (≈ 0.453 µM) | 0.7 µg/mL (≈ 1.38 µM) | 2.4 µg/mL (≈ 4.73 µM) | 0.05 µg/mL (≈ 0.0985 µM) | – | 0.26 µg/mL (≈ 0.512 µM) | Geometric Mean of MIC, (G-)-Ib [7]: 0.15 µg/mL
11 | CON=C(C(=O)NC1C(=O)N2C(C(=O)[O-])=C(C=CC[N+]3(C)CCCC3)CSC12)c1nsc(N)n1 (stereo not drawn) [I-1A E/Z = 7/1, 7-[2-(5-Amino-1,2,4-thiadiazol-3-yl)-2-methoxyiminoacetamido]-3-[3-(1-methylpyrrolidinio)-1-propenyl]-3-cephem-4-carboxylate sulfate] | – | – | – | – | – | – | Geometric Mean of MIC, (G+)-Ia ([2]; Mueller-Hinton agar, 5 strains, sulfate): 0.13 µg/mL; Geometric Mean of MIC, (G-)-II ([3]; sulfate): 0.17 µg/mL; Geometric Mean of MIC, (G+)-Ib ([4]; sulfate): 0.35 µg/mL; Geometric Mean of MIC, (G-)-III ([5]; sulfate): 1.4 µg/mL; Geometric Mean of MIC, (G-)-Ia ([6]; Mueller-Hinton agar, sulfate): 0.029 µg/mL; Geometric Mean of MIC, (G-)-Ib ([7]; sulfate): 0.05 µg/mL
12 | CON=C(C(=O)NC1C(=O)N2C(C(=O)[O-])=C(/C=C/C[n+]3ccccc3)CSC12)c1nsc(N)n1 (stereo not drawn) [I-1B E, 7-[2-(5-Amino-1,2,4-thiadiazol-3-yl)-2-methoxyiminoacetamido]-3-[3-pyridinio-1-propen-1-yl]-3-cephem-4-carboxylate] | 0.11 µg/mL (≈ 0.219 µM) | 0.4 µg/mL (≈ 0.798 µM) | 1.6 µg/mL (≈ 3.19 µM) | 0.016 µg/mL (≈ 0.0319 µM) | 0.044 µg/mL (≈ 0.0877 µM) | – | MIC [2]: 0.2 µg/mL (≈ 0.399 µM)
13 | CON=C(C(=O)NC1C(=O)N2C(C(=O)[O-])=C(C=CC[N+](C)(C)C)CS[C@H]12)c1nsc(N)n1 (stereo partly drawn) [I-1D E/Z = 1/1, 7-[2-(5-Amino-1,2,4-thiadiazol-3-yl)-2-methoxyiminoacetamido]-3-(3-trimethylammonio-1-propen-1-yl)-3-cephem-4-carboxylate] | 0.46 µg/mL (≈ 0.955 µM) | – | 2.4 µg/mL (≈ 4.98 µM) | 0.1 µg/mL (≈ 0.208 µM) | – | – | Geometric Mean of MIC, (G+)-Ia ([2]; Mueller-Hinton agar, 5 strains): 0.61 µg/mL; Geometric Mean of MIC, (G+)-Ib [4]: 1.4 µg/mL; Geometric Mean of MIC, (G-)-Ib [7]: 0.26 µg/mL
14 | CON=C(C(=O)NC1C(=O)N2C(C(=O)[O-])=C(C=CC[N+](C)(C)C)CS[C@H]12)c1nsc(N)n1 (stereo partly drawn) [I-1D E/Z = 10/1, 7-[2-(5-Amino-1,2,4-thiadiazol-3-yl)-2-methoxyiminoacetamido]-3-[3-trimethylammonio-1-propenyl]-3-cephem-4-carboxylate] | – | – | – | – | – | – | Geometric Mean of MIC, (G+)-Ia ([2]; Mueller-Hinton agar, 5 strains): 0.30 µg/mL; Geometric Mean of MIC, (G-)-II [3]: 0.26 µg/mL; Geometric Mean of MIC, (G+)-Ib [4]: 0.53 µg/mL; Geometric Mean of MIC, (G-)-III [5]: 1.3 µg/mL; Geometric Mean of MIC, (G-)-Ia ([6]; Mueller-Hinton agar): 0.05 µg/mL; Geometric Mean of MIC, (G-)-Ib [7]: 0.076 µg/mL
15 | CCO/N=C(\C(=O)NC1C(=O)N2C(C(=O)[O-])=C(/C=C/C[n+]3ccc(C(=O)O)cc3)CSC12)c1nsc(N)n1 (stereo not drawn) [I-2N E, 7-[2-(5-Amino-1,2,4-thiadiazol-3-yl)-2-(Z)-ethoxyiminoacetamido]-3-[3-(4-carboxypyridinio)-1-propenyl]-3-cephem-4-carboxylate] | 0.35 µg/mL (≈ 0.625 µM) | 2.1 µg/mL (≈ 3.75 µM) | 4.7 µg/mL (≈ 8.4 µM) | 0.016 µg/mL (≈ 0.0286 µM) | 0.11 µg/mL (≈ 0.197 µM) | 1.2 µg/mL (≈ 2.14 µM) | –
16 | CCO/N=C(\C(=O)NC1C(=O)N2C(C(=O)[O-])=C(/C=C\C[n+]3ccc(C(=O)O)cc3)CSC12)c1nsc(N)n1 (stereo not drawn) [I-2N Z, 7-[2-(5-Amino-1,2,4-thiadiazol-3-yl)-2-(Z)-ethoxyiminoacetamido]-3-[3-(4-carboxypyridinio)-1-propenyl]-3-cephem-4-carboxylate] | 0.69 µg/mL (≈ 1.23 µM) | 3.1 µg/mL (≈ 5.54 µM) | 10 µg/mL (≈ 17.9 µM) | 0.044 µg/mL (≈ 0.0786 µM) | 0.15 µg/mL (≈ 0.268 µM) | 1.4 µg/mL (≈ 2.5 µM) | –
17 | CON=C(C(=O)NC1C(=O)N2C(C(=O)[O-])=C(C=CC[n+]3ccccc3)CSC12)c1nsc(N)n1 (stereo not drawn) [I-IB E/Z = 1/4, 7-[2-(5-Amino-1,2,4-thiadiazol-3-yl)-2-methoxyiminoacetamido]-3-[3-pyridinio-1-propen-1-yl]-3-cephem-4-carboxylate] | 0.35 µg/mL (≈ 0.698 µM) | 0.8 µg/mL (≈ 1.6 µM) | 3.5 µg/mL (≈ 6.98 µM) | – | 0.11 µg/mL (≈ 0.219 µM) | 0.35 µg/mL (≈ 0.698 µM) | MIC ([6]; read-out: Geometric Mean of MIC, (G-)-Ia, Mueller-Hinton agar): 0.05 µg/mL (≈ 0.0997 µM)
